# Measured values reported in article PMC5896746 (ACS chemical biology, 2017).
# Numbering of substitutions follows the chain as printed.
# Columns and labels:
# [1] = target: T1, hPKG II 1–762 (Homo sapiens, UniProt Q13237); assay: Microfluidic mobility-shift kinase activation assay, PKG II; settings: for Isotype selectivity in activating, PKG II: selective in activating PKG II; for Activation constant Ka ± SEM: full-length PKG II, microfluidic mobility shift assay
# T1 sequence (Q13237 1-762): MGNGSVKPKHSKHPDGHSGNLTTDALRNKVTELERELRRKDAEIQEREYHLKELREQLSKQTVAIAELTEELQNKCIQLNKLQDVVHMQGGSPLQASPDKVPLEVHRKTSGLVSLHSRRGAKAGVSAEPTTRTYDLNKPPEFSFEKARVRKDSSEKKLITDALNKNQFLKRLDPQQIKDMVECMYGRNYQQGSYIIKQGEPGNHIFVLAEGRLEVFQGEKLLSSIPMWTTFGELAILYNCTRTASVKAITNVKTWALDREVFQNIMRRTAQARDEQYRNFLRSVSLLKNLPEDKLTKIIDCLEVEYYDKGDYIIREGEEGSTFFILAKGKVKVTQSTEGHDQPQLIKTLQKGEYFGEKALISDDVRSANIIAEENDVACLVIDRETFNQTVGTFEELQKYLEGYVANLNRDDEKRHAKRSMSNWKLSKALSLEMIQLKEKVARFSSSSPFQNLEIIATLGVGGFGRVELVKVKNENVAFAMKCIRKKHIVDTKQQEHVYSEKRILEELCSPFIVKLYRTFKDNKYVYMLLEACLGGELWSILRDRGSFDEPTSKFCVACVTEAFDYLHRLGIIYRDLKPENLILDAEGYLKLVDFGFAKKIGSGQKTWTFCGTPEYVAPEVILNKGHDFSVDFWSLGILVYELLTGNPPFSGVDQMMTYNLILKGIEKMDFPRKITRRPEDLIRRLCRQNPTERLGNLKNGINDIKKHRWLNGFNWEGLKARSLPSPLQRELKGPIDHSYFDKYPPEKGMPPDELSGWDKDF
# [2] = target: T2, hPKG II 41–418 wt (Homo sapiens, UniProt Q13237); assay: Competitive SPR; assay type: binding; settings: for Isotype selectivity in binding, PKG II: selective in binding PKG II
# T2 sequence (Q13237 41-418): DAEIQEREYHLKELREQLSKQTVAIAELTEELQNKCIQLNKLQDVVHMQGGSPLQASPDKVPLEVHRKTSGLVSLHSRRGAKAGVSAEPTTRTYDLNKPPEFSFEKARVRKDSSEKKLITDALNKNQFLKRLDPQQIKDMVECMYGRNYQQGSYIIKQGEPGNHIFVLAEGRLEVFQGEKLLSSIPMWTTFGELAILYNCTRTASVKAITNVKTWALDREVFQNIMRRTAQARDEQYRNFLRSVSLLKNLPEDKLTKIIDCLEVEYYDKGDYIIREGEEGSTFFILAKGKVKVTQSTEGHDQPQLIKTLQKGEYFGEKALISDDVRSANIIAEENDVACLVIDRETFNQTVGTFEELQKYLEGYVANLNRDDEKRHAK
# [3] = system: PKG II; settings: read-out: Activation constant (previous activation data); cited from earlier work
# [4] = target: T3, hPKG Iβ 1–351 G306E (Homo sapiens, UniProt Q13976, G291E); assay: Competitive SPR, PKG Iβ R domain with site B disabled; assay type: binding; settings: own affinity data
# T3 sequence (Q13976 1-351 isoform Q13976-2 G306E): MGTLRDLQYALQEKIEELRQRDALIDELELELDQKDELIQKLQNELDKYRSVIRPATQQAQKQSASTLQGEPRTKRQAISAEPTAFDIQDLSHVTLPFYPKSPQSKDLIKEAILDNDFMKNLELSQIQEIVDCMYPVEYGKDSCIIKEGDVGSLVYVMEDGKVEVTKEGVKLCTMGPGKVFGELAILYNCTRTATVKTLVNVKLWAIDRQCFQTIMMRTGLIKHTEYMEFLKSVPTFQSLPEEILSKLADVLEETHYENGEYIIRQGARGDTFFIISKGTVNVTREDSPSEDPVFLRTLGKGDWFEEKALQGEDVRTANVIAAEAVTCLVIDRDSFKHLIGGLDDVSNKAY
# [5] = target: T4, hPKG Iβ 5–676 (Homo sapiens, UniProt Q13976); assay: Microfluidic mobility-shift kinase activation assay, PKG Iβ; settings: for Activation constant Ka ± SEM: full-length PKG Iβ, microfluidic mobility shift assay
# T4 sequence (Q13976 5-686 isoform Q13976-2): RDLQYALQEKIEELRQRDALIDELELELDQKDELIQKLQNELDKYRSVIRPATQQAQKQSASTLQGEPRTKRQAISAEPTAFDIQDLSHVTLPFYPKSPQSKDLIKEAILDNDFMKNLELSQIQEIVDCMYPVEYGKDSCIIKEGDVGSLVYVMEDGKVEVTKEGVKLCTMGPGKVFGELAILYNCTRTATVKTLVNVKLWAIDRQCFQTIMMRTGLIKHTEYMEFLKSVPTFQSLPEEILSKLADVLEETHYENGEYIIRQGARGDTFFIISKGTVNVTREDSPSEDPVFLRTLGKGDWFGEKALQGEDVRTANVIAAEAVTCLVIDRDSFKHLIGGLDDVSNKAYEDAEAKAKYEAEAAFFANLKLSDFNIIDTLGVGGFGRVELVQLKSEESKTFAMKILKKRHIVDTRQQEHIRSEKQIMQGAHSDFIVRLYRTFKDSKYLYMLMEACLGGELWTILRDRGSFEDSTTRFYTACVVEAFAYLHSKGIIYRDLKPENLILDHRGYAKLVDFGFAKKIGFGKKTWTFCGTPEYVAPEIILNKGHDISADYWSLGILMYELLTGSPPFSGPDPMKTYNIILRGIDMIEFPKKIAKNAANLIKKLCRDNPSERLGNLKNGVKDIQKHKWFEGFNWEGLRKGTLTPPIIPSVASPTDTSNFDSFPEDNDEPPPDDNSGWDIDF
# [6] = system: PKG I; settings: PKG I preincubated with [3H]cGMP, cited from earlier work
# [7] = system: PKG Iβ; settings: read-out: Activation constant (previous activation data); cited from earlier work
# [8] = target: T5, hPKG II 41–418 G356E (Homo sapiens, UniProt Q13237, G356E); assay: Competitive SPR, PKG II R domain with site B disabled; assay type: binding
# T5 sequence (Q13237 41-418 G356E): T2 sequence (Q13237 41-418) with G316E
# [9] = target: T6, hPKG Iβ 1–351 G182E (Homo sapiens, UniProt Q13976, G167E); assay: Competitive SPR, PKG Iβ R domain with site A disabled; assay type: binding; settings: own affinity data
# T6 sequence (Q13976 1-351 isoform Q13976-2 G182E): T3 sequence (Q13976 1-351 isoform Q13976-2 G306E) with G182E, E306G
# [10] = target: T7, hPKG Iβ 1–351 wt (Homo sapiens, UniProt Q13976); assay: Competitive SPR
# T7 sequence (Q13976 1-351 isoform Q13976-2): T3 sequence (Q13976 1-351 isoform Q13976-2 G306E) with E306G
Activation constant Ka ± SEM [5],Activation constant Ka ± SEM [1],"Selectivity for PKG II (EC50 compared to cGMP) ([2]; wild type R domain, SPR)",Reduction of EC50 at A site of PKG II compared to cGMP [8],"Binding to B site, fold stronger than cGMP [9]","Isotype selectivity in binding, PKG Iβ ([10]; selective in binding PKG Iβ)","Selectivity for PKG Iβ (EC50 compared to cGMP) ([10]; wild type R domain, SPR)","Isotype selectivity in activating, PKG Iβ ([5]; selective in activating PKG Iβ)",SMILES,"Isotype selectivity in activating, PKG II [1]","Isotype selectivity in binding, PKG II [2]",EC50 [3],"Binding to A site, fold stronger than cGMP [4]","Binding to slowly exchanging site (A site), fold stronger than cGMP [6]",EC50 [7],"Binding to B site, fold stronger than cGMP ([6]; rapidly exchanging site)"
–,–,–,–,–,–,–,–,"Nc1nc2c(ncn2[C@@H]2O[C@@H]3COP(=O)(O)O[C@H]3[C@H]2O)c(=O)[nH]1 [cGMP, Cyclic GMP]",–,–,40 to 360 nM,–,–,250 nM,–
249 ± 17 nM (3),22 ± 3 nM (4),~ 19 fold,> 50 fold,–,–,–,–,"Nc1nc2c(nc(Sc3ccc(Cl)cc3)n2[C@@H]2O[C@@H]3COP(=O)(O)O[C@H]3[C@H]2O)c(=O)[nH]1 [8-pCPT-cGMP, 8-(4-chlorophenylthio)guanosine-3′-5′-cyclic monophosphate]",~ 10 fold,40–50 fold,–,–,–,440 nM,–
18 ± 2 nM (3),225 ± 13 nM (3),–,–,over 50 fold,40–50 fold,~ 40 fold,~ 10 fold,"O=c1c2ncn([C@@H]3O[C@@H]4COP(=O)(O)O[C@H]4[C@H]3O)c2nc2[nH]c(-c3ccccc3)cn12 [PET-cGMP, β-phenyl-1,N2-ethenoguanosine 3′,5′-monophosphate]",–,–,–,–,–,20 nM,10 fold

SMILES,Activation constant Ka ± SEM [5],Activation constant Ka ± SEM [1],"Selectivity for PKG II (EC50 compared to cGMP) ([2]; wild type R domain, SPR)",Reduction of EC50 at A site of PKG II compared to cGMP [8],"Binding to B site, fold stronger than cGMP [9]","Isotype selectivity in binding, PKG Iβ ([10]; selective in binding PKG Iβ)","Selectivity for PKG Iβ (EC50 compared to cGMP) ([10]; wild type R domain, SPR)","Isotype selectivity in activating, PKG Iβ ([5]; selective in activating PKG Iβ)","Isotype selectivity in activating, PKG II [1]","Isotype selectivity in binding, PKG II [2]",EC50 [3],"Binding to A site, fold stronger than cGMP [4]","Binding to slowly exchanging site (A site), fold stronger than cGMP [6]",EC50 [7],"Binding to B site, fold stronger than cGMP ([6]; rapidly exchanging site)"
"Nc1nc2c(nc(Br)n2[C@@H]2O[C@@H]3COP(=O)(O)O[C@H]3[C@H]2O)c(=O)[nH]1 [8-Br-cGMP, 8-bromoguanosine 3′,5′-cyclic monophosphate]",206 ± 13 nM (3),–,–,–,–,–,–,–,~ 4 fold,~ 10 fold,25 nM,over 2 fold,3.4 fold,–,–
